Results reported in ChEMBL document CHEMBL1201862, “PubChem BioAssay data set” (2004).
The source made the active and inactive calls.

Legend:
[1] = molecular target: Cytochrome P450 2C9 (Homo sapiens, UniProt P11712)
[2] = molecular target: Cytochrome P450 3A4 (Homo sapiens, UniProt P08684);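 note: CYP3A4 tested as one member of a cytochrome P450 panel screen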
[3] = molecular target: Cytochrome P450 2C19 (Homo sapiens, UniProt P33261); assay: Cytochrome panel assay with activity outcomes. Panel member name: p450-cyp2c19 Compounds with AC50 equal or less than 10 uM are considered active; assay type: functional
[4] = molecular target: T1, Cytochrome P450 1A2 (Homo sapiens, UniProt P05177);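 note: PubChem cytochrome P450 panel assay, CYP1A2 panel member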
T1 sequence (P05177 whole entry): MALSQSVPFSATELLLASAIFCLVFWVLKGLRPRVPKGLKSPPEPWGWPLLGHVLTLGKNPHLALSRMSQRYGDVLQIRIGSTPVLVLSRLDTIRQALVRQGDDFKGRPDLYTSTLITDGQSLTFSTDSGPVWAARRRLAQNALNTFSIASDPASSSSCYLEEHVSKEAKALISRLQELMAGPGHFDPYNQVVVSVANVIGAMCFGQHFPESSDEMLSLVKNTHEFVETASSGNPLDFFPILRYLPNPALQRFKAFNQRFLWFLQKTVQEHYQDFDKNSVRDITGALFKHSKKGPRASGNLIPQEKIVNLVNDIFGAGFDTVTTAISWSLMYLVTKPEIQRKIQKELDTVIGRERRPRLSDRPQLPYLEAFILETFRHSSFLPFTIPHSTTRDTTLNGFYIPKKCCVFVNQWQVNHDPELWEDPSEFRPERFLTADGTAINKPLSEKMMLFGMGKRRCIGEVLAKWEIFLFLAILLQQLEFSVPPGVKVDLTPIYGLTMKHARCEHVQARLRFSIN

[5] = molecular target: Cytochrome P450 2D6 (Homo sapiens, UniProt P10635);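 note: CYP2D6 member of a cytochrome P450 panel assay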
[6] = molecular target: T2, Heat shock factor protein 1 (Mus musculus, UniProt P38532); assay: HSF1 potentiators in luciferase reporter cells, confirmation, cell-based, NIH3T3, luminescence, dose retest (AID 435004); assay type: functional;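 note: stress induced by proteasome inhibitor MG132 added 30 min after compound; luciferase reporter driven by HSF1 response element in NIH3T3 cells; actives raise luminescence as potentiators of the MG132 stress response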
T2 sequence (P38532 whole entry): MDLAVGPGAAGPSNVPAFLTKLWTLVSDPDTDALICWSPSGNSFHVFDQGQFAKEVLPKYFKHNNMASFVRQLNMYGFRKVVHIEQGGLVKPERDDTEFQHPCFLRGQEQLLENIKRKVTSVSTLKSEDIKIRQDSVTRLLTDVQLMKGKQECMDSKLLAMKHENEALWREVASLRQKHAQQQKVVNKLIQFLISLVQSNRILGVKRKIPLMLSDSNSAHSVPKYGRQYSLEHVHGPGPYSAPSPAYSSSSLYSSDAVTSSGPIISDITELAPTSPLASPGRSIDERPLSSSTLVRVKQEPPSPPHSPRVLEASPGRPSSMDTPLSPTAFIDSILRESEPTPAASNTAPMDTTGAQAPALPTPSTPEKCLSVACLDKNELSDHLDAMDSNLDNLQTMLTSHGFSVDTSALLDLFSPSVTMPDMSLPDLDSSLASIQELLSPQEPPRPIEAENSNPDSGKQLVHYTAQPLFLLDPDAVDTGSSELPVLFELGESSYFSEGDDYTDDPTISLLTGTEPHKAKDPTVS

[7] = Luminescence Cell-Based Dose Response HTS to Identify Activators of Luciferase Translation or Activity in H4 […] Cells. [Related pubchem assays: 1829 (Project Summary), 1814 (Primary HTS)]; assay type: functional
[8] = Luminescence Cell-Based Dose Confirmation HTS to Identify Activators of 5'UTR Stem-Loop Driven Alpha-Synuclein mRNA Translation in H4 Neuroglioblastoma Cells. [Related pubchem assays: 1829 (Project Summary), 1814 (Primary HTS)]; assay type: functional
[9] = system: H4; assay: Luminescence Cell-Based Dose Response HTS to Identify Activators of 5'UTR Stem-Loop Driven Prion Protein mRNA Translation in H4 Neuroglioblastoma Cells. [Related pubchem assays: 1829 (Project Summary), 1814 (Primary HTS)]; assay type: functional; details: Homo sapiens

Chain of Cytochrome P450 3A4 (P08684 whole entry): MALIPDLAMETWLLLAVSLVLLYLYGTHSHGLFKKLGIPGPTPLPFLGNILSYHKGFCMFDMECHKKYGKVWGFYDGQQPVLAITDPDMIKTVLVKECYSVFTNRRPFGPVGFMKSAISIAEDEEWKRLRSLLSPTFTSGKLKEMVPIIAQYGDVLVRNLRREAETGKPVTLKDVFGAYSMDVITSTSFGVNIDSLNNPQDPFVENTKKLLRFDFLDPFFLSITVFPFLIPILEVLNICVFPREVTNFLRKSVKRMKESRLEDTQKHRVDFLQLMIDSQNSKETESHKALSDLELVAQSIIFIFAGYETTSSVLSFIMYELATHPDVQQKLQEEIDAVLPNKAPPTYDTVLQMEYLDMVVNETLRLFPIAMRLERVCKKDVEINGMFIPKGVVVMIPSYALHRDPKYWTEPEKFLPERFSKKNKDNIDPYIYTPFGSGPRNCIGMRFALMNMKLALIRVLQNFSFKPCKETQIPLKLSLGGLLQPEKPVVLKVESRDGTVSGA
Chain of Cytochrome P450 2D6 (P10635 whole entry): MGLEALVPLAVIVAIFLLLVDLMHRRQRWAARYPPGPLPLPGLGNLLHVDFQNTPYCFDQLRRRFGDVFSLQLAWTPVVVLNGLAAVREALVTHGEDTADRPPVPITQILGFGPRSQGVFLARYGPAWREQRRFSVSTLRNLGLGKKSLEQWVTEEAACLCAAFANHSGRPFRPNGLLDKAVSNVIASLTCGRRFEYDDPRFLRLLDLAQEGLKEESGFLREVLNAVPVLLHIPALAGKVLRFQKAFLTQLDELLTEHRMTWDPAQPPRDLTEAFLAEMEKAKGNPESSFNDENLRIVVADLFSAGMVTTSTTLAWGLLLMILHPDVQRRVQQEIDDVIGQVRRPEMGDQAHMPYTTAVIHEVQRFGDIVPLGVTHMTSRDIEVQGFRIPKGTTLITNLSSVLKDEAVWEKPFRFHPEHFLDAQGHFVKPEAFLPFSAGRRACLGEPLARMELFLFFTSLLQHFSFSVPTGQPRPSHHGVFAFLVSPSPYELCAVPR
Chain of Cytochrome P450 2C9 (P11712 whole entry): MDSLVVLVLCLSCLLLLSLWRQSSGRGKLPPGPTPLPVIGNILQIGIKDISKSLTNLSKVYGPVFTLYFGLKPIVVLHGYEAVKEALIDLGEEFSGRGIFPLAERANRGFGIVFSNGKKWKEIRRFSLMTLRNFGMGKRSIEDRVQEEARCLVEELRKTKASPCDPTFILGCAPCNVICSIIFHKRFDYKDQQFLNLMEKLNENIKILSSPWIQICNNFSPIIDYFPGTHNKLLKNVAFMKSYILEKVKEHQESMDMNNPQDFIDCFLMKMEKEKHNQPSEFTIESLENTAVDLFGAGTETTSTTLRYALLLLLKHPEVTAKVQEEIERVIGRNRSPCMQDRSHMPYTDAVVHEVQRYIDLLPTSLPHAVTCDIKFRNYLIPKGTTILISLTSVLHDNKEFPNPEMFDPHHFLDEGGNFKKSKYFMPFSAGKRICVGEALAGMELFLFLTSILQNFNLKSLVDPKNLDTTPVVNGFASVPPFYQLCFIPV
Chain of Cytochrome P450 2C19 (P33261 whole entry): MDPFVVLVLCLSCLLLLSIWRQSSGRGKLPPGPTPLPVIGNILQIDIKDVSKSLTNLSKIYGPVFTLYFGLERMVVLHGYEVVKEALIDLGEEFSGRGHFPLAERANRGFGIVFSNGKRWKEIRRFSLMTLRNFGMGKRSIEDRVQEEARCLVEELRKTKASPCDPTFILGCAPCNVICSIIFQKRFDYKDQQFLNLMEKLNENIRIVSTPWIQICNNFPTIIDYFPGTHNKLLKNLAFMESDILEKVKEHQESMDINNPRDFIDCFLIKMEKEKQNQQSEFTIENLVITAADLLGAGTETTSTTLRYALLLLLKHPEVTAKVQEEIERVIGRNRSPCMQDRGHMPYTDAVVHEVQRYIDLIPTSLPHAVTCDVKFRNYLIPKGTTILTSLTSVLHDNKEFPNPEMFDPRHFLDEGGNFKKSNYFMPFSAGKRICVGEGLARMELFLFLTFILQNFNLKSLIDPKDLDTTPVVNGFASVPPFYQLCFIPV

## CNC(=O)c1cc2c(cn1)[nH]c1ccccc12
[1]
  AC50: 31.6 µM (inconclusive)
[2]
  AC50: 39.8 µM (inconclusive)
[3]
  AC50: inconclusive

## O=c1[nH]ncc2c3ccccc3n(Cc3ccccc3)c12
[1]
  AC50: 2 µM (inconclusive)
[3]; read-out: AC50
  AC50: 2.51 µM (inconclusive)

## CCOC(=O)c1ccccc1NC(=O)CSc1cccc[n+]1[O-]
[4]
  AC50: 25.1 µM (inconclusive)
[3]; read-out: AC50
  AC50: 22.4 µM (inconclusive)

## COc1ccccc1-c1cncnc1-n1ccnc1
[5]
  AC50: 25.1 µM (inconclusive)
[3]; read-out: AC50
  AC50: 25.1 µM (inconclusive)

## CSc1sc(C(=O)OC(C)C)c2c1C(=O)CC(C)(C)C2
[6]
  EC50: > 260 µM (inactive)

## COC(=O)C1(Cc2ccccc2)C=C2C(=C(C(C)C)C(=O)C2C)CN1 (centres undefined)
[4]
  AC50: 15.8 µM (inconclusive)
[1]
  AC50: 31.6 µM (inconclusive)
[3]; read-out: AC50
  AC50: 39.8 µM (inconclusive)

## NC(=O)C1CC(=O)N(c2ccc(OCc3ccc(Cl)cc3)cc2)C1 (centres undefined)
[7]
  EC50: 42.6 µM (active)
[8]
  EC50: 19.2 µM (active)

## CC1(CCC#N)N=C(SCCC#N)N(c2ccccc2)C1=O (centres undefined)
[3]; read-out: AC50
  AC50: 25.1 µM (inconclusive)

## CC(=O)N1c2ccc(C)cc2C(c2ccccc2)CC1C (centres undefined)
[6]
  EC50: > 260 µM (inactive)

## CC(C)=NOCc1cccc(-c2cc(-c3ccccc3)no2)c1
[2]
  AC50: 6.31 µM (inconclusive)

## C(=C/c1ccccc1)/C=N/c1ccc2c(c1)Cc1ccccc1-2
[2]
  AC50: 3.98 µM (inconclusive)

## COc1ccc(C2SCC(=O)Nc3c2c(C)nn3-c2ccccc2)cc1OC (centres undefined)
[4]
  AC50: 22.4 µM (inconclusive)
[2]
  AC50: 12.6 µM (inconclusive)

## CC(C)CN1CCC2(CC1)CCN(C(=O)c1cccn1C)CC2
[5]
  AC50: 12.6 µM (inconclusive)

## CS(=O)(=O)Nc1cccc(-c2nc(NCc3cccnc3)c3ccccc3n2)c1
[1]
  AC50: 1 µM (inconclusive)

## O=C1c2ccccc2C(=O)c2c1ccc(C(=O)O)c2-c1ccc2ccccc2c1
[4]
  AC50: 1.26 µM (inconclusive)
[5]
  AC50: 7.94 µM (inconclusive)

## N#Cc1ccc(Cl)cc1NC(=O)CNCc1cccs1
[6]
  EC50: > 260 µM (inactive)

## CCCc1ccc(NC(=O)C2CCCN(c3cnccn3)C2)cc1 (centres undefined)
[6]
  EC50: > 260 µM (inactive)

## Cc1ccc(C(=O)NCCCN2CCOCC2)cc1N1CCCC1=O
[1]
  AC50: 1.26 µM (inconclusive)

## CC(C)(C)c1ccc(OCC(=O)NN2Cc3ccccc3C2=N)cc1
[6]
  EC50: > 260 µM (inactive)

## CCCCCCCCCCCCC/C=C\[C@@H](O)[C@@H](N)CO
[1]
  AC50: 39.8 µM (inconclusive)
[3]; read-out: AC50
  AC50: 25.1 µM (inconclusive)

## CC(Sc1nncn1C)C(=O)Nc1nnc(-c2ccccc2)s1 (centres undefined)
[7]
  EC50: 25 µM (active)
[8]
  EC50: 19.1 µM (active)
[9]
  EC50: 17.5 µM (active)

## CC(=O)NN1C(=O)/C(=C\c2ccc(C)cc2)SC1=S
[1]
  AC50: 28.2 µM (inconclusive)

## CN(C)c1ncc2nc(-c3ccc(Cl)cc3)c(=O)n(-c3ccccc3)c2n1
[4]
  AC50: 5.01 µM (inconclusive)
[5]
  AC50: 0.631 µM (inconclusive)

## COc1ccccc1CN1CCCC2(CCN(C(=O)c3ccncc3)CC2)C1
[4]
  AC50: 20 µM (inconclusive)
[1]
  AC50: 20 µM (inconclusive)

## COC(=O)[C@@]1(Cc2ccccc2)[C@H]2c3cc(C(=O)N4CCCC4)n(Cc4cc(F)cc5c4OCOC5)c3C[C@H]2CN1C(=O)c1ccccc1
[5]
  AC50: 10 µM (inconclusive)

## CCCCNc1nc(SC)nc2[nH]cnc12
[5]
  AC50: 2.51 µM (inconclusive)
[2]
  AC50: 3.16 µM (inconclusive)
[3]; read-out: AC50
  AC50: 3.16 µM (inconclusive)

## CCOc1ccc(C)cc1S(=O)(=O)NC1CCCCC1
[6]
  EC50: > 260 µM (inactive)

## COCCn1c(=O)c(-c2ccc(Cl)cc2)nc2cncnc21
[1]
  AC50: 31.6 µM (inconclusive)
[2]
  AC50: 12.6 µM (inconclusive)
[3]; read-out: AC50
  AC50: 39.8 µM (inconclusive)

## Cc1ccc(C)c(NC(=O)CS(=O)(=O)c2cn(C)c3ccccc23)c1
[6]
  EC50: > 260 µM (inactive)

## CCCCN1C(=O)C(NC(=O)CC(C)C)(C(F)(F)F)C2=C1CC(C)(C)CC2=O (centres undefined)
[1]
  AC50: 5.62 µM (inconclusive)
[3]; read-out: AC50
  AC50: 25.1 µM (inconclusive)

## O=c1ccc2ccc(Oc3ccc([N+](=O)[O-])cc3[N+](=O)[O-])cc2o1
[6]
  EC50: 13.5 µM (active)

## Fc1ccc(-c2csc(N3CCC(c4ccccc4)C3)n2)cc1 (centres undefined)
[2]
  AC50: 28.2 µM (inconclusive)

## Cc1ccc(NC(=S)N=Nc2c(O)n(C)c3ccc(S(=O)(=O)N4CCOCC4)cc23)cc1
[6]
  EC50: 6.25 µM (active)

## COc1cccc(CN2CC(C(=O)NCc3ccc(C)o3)CCC2=O)c1 (centres undefined)
[6]
  EC50: > 260 µM (inactive)

## Cc1ccc(CNC(=O)Cn2c(=O)oc3ccccc32)o1
[5]
  AC50: 20 µM (inconclusive)

## CC12COC3(C(=O)Nc4nccs4)CC1CCC32C (centres undefined)
[4]
  AC50: 12.6 µM (inconclusive)
[1]
  AC50: 0.01 µM (inconclusive)

## COc1ccc(C(=O)NCCCN2CCOCC2)cc1OC
[5]
  AC50: 2 µM (inconclusive)
[1]
  AC50: 14.1 µM (inconclusive)

## COc1ccc(-c2cc(C(=O)Nc3cccc(Cl)c3)no2)cc1
[9]
  EC50: 0.184 µM (active)

## CCOc1cc(NC(=O)c2ccccc2C)c(OCC)cc1N=C(S)NCC1CCCO1 (centres undefined)
[3]; read-out: AC50
  AC50: 11.2 µM (inconclusive)

## CCOc1ccc(-c2nnc(-c3ccncc3)o2)cc1
[2]
  AC50: 1.58 µM (inconclusive)

## Cc1cccc(CN2CCC(C(=O)Nc3cccc(-c4cscn4)c3)CC2)n1
[6]
  EC50: > 260 µM (inactive)

## Cc1cc(C)c(C(N)=O)c(SCC(=O)c2ccc(Cl)cc2)n1
[4]
  AC50: 15.8 µM (inconclusive)
[2]
  AC50: 31.6 µM (inconclusive)

## CC(=O)NCCn1ccc2ccccc21
[6]
  EC50: > 260 µM (inactive)

## CCNc1ncc2nc(-c3cccc(C#N)c3)c(=O)n(CCC#N)c2n1
[4]
  AC50: 0.631 µM (inconclusive)
[2]
  AC50: 7.94 µM (inconclusive)

## CCNc1ncc2nc(-c3cc(F)cc(F)c3)c(=O)n(-c3ccc(OC)cc3)c2n1
[5]
  AC50: 0.158 µM (inconclusive)

## CC(C)(C)CC(C)(C)c1ccc(O)c(C[N+](C)(C)[O-])c1
[5]
  AC50: 7.94 µM (inconclusive)
[2]
  AC50: 5.01 µM (inconclusive)

## CCOC(=O)c1c(C)n(C)c2ccc(OC)c(NC(=O)CN3CCCCC3)c12
[5]
  AC50: 20 µM (inconclusive)
[2]
  AC50: 14.1 µM (inconclusive)
[3]; read-out: AC50
  AC50: 11.2 µM (inconclusive)

## CCCCN(C(S)=Nc1ccccc1)C1CCS(=O)(=O)C1 (centres undefined)
[2]
  AC50: 22.4 µM (inconclusive)

## Cc1onc(-c2ccccc2)c1C(=O)NC(CC(=O)O)c1ccc(OC(C)C)cc1 (centres undefined)
[1]
  AC50: 15.8 µM (inconclusive)
[2]
  AC50: 28.2 µM (inconclusive)
[3]; read-out: AC50
  AC50: 7.08 µM (inconclusive)

## Cc1ccc(NC(=S)N2CCN(C3CCCCC3)CC2)cc1
[2]
  AC50: 10 µM (inconclusive)

## O=C(CN(Cc1ccccc1)S(=O)(=O)c1ccc2c(c1)OCCO2)N/N=C/c1ccc(F)cc1
[4]
  AC50: 11.2 µM (inconclusive)
[5]
  AC50: 15.8 µM (inconclusive)

## COc1ccc(OCCn2c(C)c(/C=N/n3cnnc3)c3ccccc32)cc1
[5]
  AC50: 3.98 µM (inconclusive)

## C/C(=N/NC(=O)c1cccs1)c1ccc(NC(=O)COc2ccc(Cl)cc2Cl)cc1
[4]
  AC50: 12.6 µM (inconclusive)
[1]
  AC50: 4.47 µM (inconclusive)

## Cc1ccc(C)c(S(=O)(=O)c2c(N)n(/N=C/c3ccco3)c3nc4ccccc4nc23)c1
[6]
  EC50: > 260 µM (inactive)

## C(=N\n1cnnc1)/c1cccn1-c1ccccc1
[2]
  AC50: 39.8 µM (inconclusive)
[3]; read-out: AC50
  AC50: 0.0251 µM (inconclusive)

## COc1ccccc1CNc1ncnc2ccc(-c3ccccc3OC)cc12
[5]
  AC50: 12.6 µM (inconclusive)

## Nc1ccccc1SCc1csc(-c2ccc(Cl)cc2)n1
[5]
  AC50: 3.16 µM (inconclusive)
[1]
  AC50: 5.01 µM (inconclusive)

## COc1ccc(-c2coc3cc(OC)cc(O)c3c2=O)cc1 [4',7-DIMETHOXY-5-HYDROXYGENISTEIN]
[1]
  AC50: 2.82 µM (inconclusive)
[3]; read-out: AC50
  AC50: 25.1 µM (inconclusive)

## CN(C(=O)Cc1ccc(Cl)c(Cl)c1)[C@H](CN1CCCC1)c1ccccc1 [ICI-199,441]
[4]
  AC50: 31.6 µM (inconclusive)
[5]
  AC50: 0.0126 µM (active)
